Columns and labels:
[1] = system: pathogenic bacteria causing bacterial angular leaf spot in cucumbers; experiment: In vitro bactericidal activity, bacterial angular leaf spot in cucumbers; assay type: cell-based, pseudomonas; details: read-out: inhibitory rate; for inhibition at 1 ppm: dosage 1 ppm; for inhibition at 5 ppm: dosage 5 ppm
Description: (§1) Under aseptic conditions, equal amounts of NB culture medium were added to test tubes, and fixed amounts of the sample solutions were pipetted into the above test tubes in an ascending order of concentrations, respectively. The mixtures were well mixed and added with equal amounts of a bacterial suspension in log phase.
(§2) Each step of the procedure was repeated 4 times. After mixing, the mixture samples were incubated in the dark in a shaking incubator at 25° C. The OD values were measured when the bacteria were in log phase.

[2] = system: pathogenic bacteria causing bacterial wilt in tobacco; experiment: whole plant or invertebrate; assay type: cell-based, ralstonia; details: read-out: inhibitory rate
[3] = system: pathogenic bacteria causing black shank in potatoes; experiment: In vitro bactericidal activity, black shank in potatoes; assay type: cell-based; details: read-out: inhibitory rate; for inhibition at 1 ppm: dosage 1 ppm; for inhibition at 5 ppm: dosage 5 ppm
Description: as §1, §2

[4] = system: pathogenic bacteria causing stem rot in sweet potatoes; experiment: In vitro bactericidal activity, stem rot in sweet potatoes; assay type: cell-based, dikia; details: read-out: inhibitory rate; for inhibition at 1 ppm: dosage 1 ppm; for inhibition at 5 ppm: dosage 5 ppm
Description: as §1, §2

[5] = system: pathogenic bacteria causing bacterial blight in rice; experiment: whole plant or invertebrate; assay type: cell-based, xanthomonas; details: read-out: inhibitory rate
[6] = system: pathogenic bacteria causing fruit blotch in watermelons; experiment: In vitro bactericidal activity, fruit blotch in watermelons; assay type: cell-based, acidovorax; details: read-out: inhibitory rate; for inhibition at 1 ppm: dosage 1 ppm; for inhibition at 5 ppm: dosage 5 ppm
Description: as §1, §2

[7] = system: pathogenic bacteria causing black rot in Chinese cabbages; experiment: In vitro bactericidal activity, black rot in Chinese cabbages; assay type: cell-based, xanthomonas; details: Xanthomonas, read-out: inhibitory rate; for inhibition at 1 ppm: dosage 1 ppm; for inhibition at 5 ppm: dosage 5 ppm
Description: as §1, §2

[8] = system: pathogenic bacteria causing bacterial wilt in cassava; experiment: organism not typed; assay type: cell-based; details: read-out: inhibitory rate
[9] = system: pathogenic bacteria causing fire blight in pears; experiment: In vitro bactericidal activity, fire blight in pears; assay type: cell-based, erwinia; details: Erwinia, read-out: inhibitory rate; for inhibition at 1 ppm: dosage 1 ppm; for inhibition at 5 ppm: dosage 5 ppm
Description: as §1, §2

[10] = system: black shank in potatoes; experiment: Living crops in vivo protective activity, potatoes (root irrigation); details: Solanum tuberosum, read-out: efficacy against black shank in potatoes; for pest or weed control at 5 ppm: dosage 5 ppm; for pest or weed control at 10 ppm: dosage 10 ppm
Description: Root irrigation was carried out on the potatoes for tests according to the designed concentration of the agents. The dosage for each plant was 200 mL and was kept consistent (also for the control). The black shank bacteria were inoculated on the second day after the application. The results were investigated according to the disease condition.

[11] = system: cucumber seedlings; experiment: Safety for plant growth after application; assay type: in vivo; details: dosage 200 ppm
Source text: Taking indoor potted cucumber seedlings as an example, the influence of the compound disclosed herein on growth rate of plant height, chlorophyll content, leaf area, etc. of crops was mainly evaluated.
The results of safety and health-care effect of the compounds of the present disclosure on cucumber seedlings are shown in the following table 1: […]

[12] = system: bacterial wilt in tobacco; experiment: whole plant or invertebrate; details: Nicotiana tabacum, read-out: efficacy against bacterial wilt in tobacco
[13] = system: stem rot in sweet potatoes; experiment: whole plant or invertebrate; details: read-out: efficacy against stem rot in sweet potatoes
[14] = system: bacterial blight in rice; experiment: whole plant or invertebrate; details: Oryza sativa, read-out: efficacy against bacterial blight in rice
[15] = system: fruit blotch in watermelons; experiment: whole plant or invertebrate; details: read-out: efficacy against fruit blotch in watermelons
[16] = system: soft rot in Chinese cabbages; experiment: whole plant or invertebrate; details: 48 h, read-out: efficacy against soft rot in Chinese cabbages

Structure (SMILES) | inhibition at 1 ppm [1] [%] | inhibition at 5 ppm [1] [%] | inhibition at 5 ppm [2] [%] | inhibition at 5 ppm [3] [%] | inhibition at 5 ppm [4] [%] | inhibition at 5 ppm [5] [%] | inhibition at 5 ppm [6] [%] | inhibition at 5 ppm [7] [%] | inhibition at 5 ppm [8] [%] | inhibition at 5 ppm [9] [%] | pest or weed control at 10 ppm [10] [%] | safety for plant growth (discoloration, necrosis, wilt, malformation) [11] | pest or weed control at 5 ppm [12] [%] | pest or weed control at 10 ppm [12] [%] | pest or weed control at 5 ppm [13] [%] | pest or weed control at 10 ppm [13] [%] | pest or weed control at 10 ppm [14] [%] | pest or weed control at 5 ppm [15] [%] | pest or weed control at 10 ppm [15] [%] | pest or weed control at 10 ppm [16] [%] | also measured
CCOc1cc2c(cc1F)c(=O)c(C(=O)OCCOC(C)C)cn2C1CC1 [Compound 300] | ≥ 90 | ≥ 90 | ≥ 90 | ≥ 90 | ≥ 90 | ≥ 90 | ≥ 90 | ≥ 90 | ≥ 90 | ≥ 90 | ≥ 90 | safe for plant growth | ≥ 90 | ≥ 90 | ≥ 90 | ≥ 90 | ≥ 90 | ≥ 90 | ≥ 90 | ≥ 90 | inhibition at 1 ppm [2]: ≥ 90%; inhibition at 1 ppm [3]: ≥ 90%; inhibition at 1 ppm [4]: ≥ 90%; inhibition at 1 ppm [5]: ≥ 90%; inhibition at 1 ppm [6]: ≥ 90%; inhibition at 1 ppm [7]: ≥ 90%; inhibition at 1 ppm [8]: ≥ 90%; inhibition at 1 ppm [9]: ≥ 90%; pest or weed control at 5 ppm [10]: ≥ 90%; pest or weed control at 5 ppm [14]: ≥ 90%; pest or weed control at 5 ppm [16]: ≥ 90%
COCOC(=O)c1cn(C2CC2)c2ccc(F)cc2c1=O [Compound 1, methoxymethyl 1-cyclopropyl-6-fluoro-4-oxo-1,4-dihydroquinoline-3-carboxylate] | ≥ 80 | ≥ 90 | ≥ 90 | ≥ 90 | ≥ 90 | ≥ 90 | ≥ 90 | ≥ 90 | ≥ 90 | ≥ 90 | ≥ 90 | safe for plant growth | ≥ 90 | ≥ 90 | ≥ 90 | ≥ 90 | ≥ 90 | ≥ 90 | ≥ 90 | ≥ 90 | inhibition at 1 ppm [2]: ≥ 80%; inhibition at 1 ppm [3]: ≥ 80%; inhibition at 1 ppm [4]: ≥ 80%; inhibition at 1 ppm [5]: ≥ 80%; inhibition at 1 ppm [6]: ≥ 80%; inhibition at 1 ppm [7]: ≥ 80%; inhibition at 1 ppm [8]: ≥ 80%; inhibition at 1 ppm [9]: ≥ 80%; pest or weed control at 5 ppm [10]: ≥ 80%; pest or weed control at 5 ppm [14]: ≥ 80%; pest or weed control at 5 ppm [16]: ≥ 80%
COCCOC(=O)c1cn(C2CC2)c2cc(OC)ccc2c1=O [Compound 353] | ≥ 80 | ≥ 90 | ≥ 90 | ≥ 90 | ≥ 90 | ≥ 90 | ≥ 90 | ≥ 90 | ≥ 90 | ≥ 90 | ≥ 90 | safe for plant growth | ≥ 90 | ≥ 90 | ≥ 90 | ≥ 90 | ≥ 90 | ≥ 90 | ≥ 90 | ≥ 90 | inhibition at 1 ppm [2]: ≥ 80%; inhibition at 1 ppm [3]: ≥ 80%; inhibition at 1 ppm [4]: ≥ 80%; inhibition at 1 ppm [5]: ≥ 80%; inhibition at 1 ppm [6]: ≥ 80%; inhibition at 1 ppm [7]: ≥ 80%; inhibition at 1 ppm [8]: ≥ 80%; inhibition at 1 ppm [9]: ≥ 80%; pest or weed control at 5 ppm [10]: ≥ 80%; pest or weed control at 5 ppm [14]: ≥ 80%; pest or weed control at 5 ppm [16]: ≥ 80%
O=C(OCCCCO)c1cn(C2CC2)c2cc(Cl)c(F)cc2c1=O [Compound 177] | ≥ 90 | ≥ 90 | ≥ 90 | ≥ 90 | ≥ 90 | ≥ 90 | ≥ 90 | ≥ 90 | ≥ 90 | ≥ 90 | ≥ 90 | safe for plant growth | ≥ 90 | ≥ 90 | ≥ 90 | ≥ 90 | ≥ 90 | ≥ 90 | ≥ 90 | ≥ 90 | inhibition at 1 ppm [2]: ≥ 90%; inhibition at 1 ppm [3]: ≥ 90%; inhibition at 1 ppm [4]: ≥ 90%; inhibition at 1 ppm [5]: ≥ 80%; inhibition at 1 ppm [6]: ≥ 90%; inhibition at 1 ppm [7]: ≥ 90%; inhibition at 1 ppm [8]: ≥ 90%; inhibition at 1 ppm [9]: ≥ 90%; pest or weed control at 5 ppm [10]: ≥ 90%; pest or weed control at 5 ppm [14]: ≥ 80%; pest or weed control at 5 ppm [16]: ≥ 90%
CCOCOC(=O)c1cn(C2CC2)c2ccc(F)cc2c1=O [Compound 2] | – | ≥ 90 | ≥ 90 | ≥ 90 | ≥ 90 | ≥ 90 | ≥ 90 | ≥ 90 | ≥ 90 | ≥ 90 | ≥ 90 | safe for plant growth | ≥ 90 | ≥ 90 | ≥ 90 | ≥ 90 | ≥ 90 | ≥ 90 | ≥ 90 | ≥ 90 | –

From US20250313533A1, “QUINOLINE CARBOXYLIC ACID ESTER COMPOUND AND PREPARATION METHOD AND USE THEREOF” (priority 2019, published 2025)
